The kinase profiling compilation of Christmann-Franck et al. (2016)
Blank lines part the entries; values can stand above or below the molecule they belong to.

How the values were obtained:
STK17A (human) = STK17A (human) (UniProt Q9UEE5); assay: KINOMEscan competition binding; conditions: compound 10.0 µM
HIPK1 (human) = HIPK1 (human) (UniProt Q86Z02); assay: KINOMEscan competition binding; conditions: compound 10.0 µM
CDK5 (human) = CDK5 (human) (UniProt Q00535); assay: KINOMEscan competition binding; conditions: compound 10.0 µM
TAOK3 (human) = TAOK3 (human) (UniProt Q9H2K8); assay: KINOMEscan competition binding; conditions: compound 10.0 µM
TTK (human) [1] = target: TTK (human) (UniProt P33981); assay: KINOMEscan competition binding; conditions: for kinase still bound, per cent of control: compound 10.0 µM
PIM1 (human) [2] = target: PIM1 (human) (UniProt P11309); assay: KINOMEscan competition binding; conditions: compound 10.0 µM
GSK3A (human) = GSK3A (human) (UniProt P49840); assay: KINOMEscan competition binding; conditions: compound 10.0 µM
NLK (human) = NLK (human) (UniProt Q9UBE8); assay: KINOMEscan competition binding; conditions: compound 10.0 µM
CDK7 (human) = CDK7 (human) (UniProt P50613); assay: KINOMEscan competition binding; conditions: compound 10.0 µM
DAPK1 (human) = DAPK1 (human) (UniProt P53355); assay: KINOMEscan competition binding; conditions: compound 10.0 µM
MAPK15 (human) = MAPK15 (human) (UniProt Q8TD08); assay: KINOMEscan competition binding; conditions: compound 10.0 µM
BRAF (human) = BRAF (human) (UniProt P15056); assay: KINOMEscan competition binding; conditions: compound 10.0 µM
CDK16 (human) = CDK16 (human) (UniProt Q00536); assay: KINOMEscan competition binding; conditions: compound 10.0 µM
ACVR2B (human) = ACVR2B (human) (UniProt Q13705); assay: KINOMEscan competition binding; conditions: compound 10.0 µM
DAPK3 (human) = DAPK3 (human) (UniProt O43293); assay: KINOMEscan competition binding; conditions: compound 10.0 µM
PLK4 (human) = PLK4 (human) (UniProt O00444); assay: KINOMEscan competition binding; conditions: compound 10.0 µM
PIM2 (human) [3] = target: PIM2 (human) (UniProt Q9P1W9); assay: KINOMEscan competition binding; conditions: compound 10.0 µM
CDK3 (human) = CDK3 (human) (UniProt Q00526); assay: KINOMEscan competition binding; conditions: compound 10.0 µM
MYLK4 (human) = MYLK4 (human) (UniProt Q86YV6); assay: KINOMEscan competition binding; conditions: compound 10.0 µM
MAPK12 (human) = MAPK12 (human) (UniProt P53778); assay: KINOMEscan competition binding; conditions: compound 10.0 µM
TAOK1 (human) = TAOK1 (human) (UniProt Q7L7X3); assay: KINOMEscan competition binding; conditions: compound 10.0 µM
PIM3 (human) = PIM3 (human) (UniProt Q86V86); assay: KINOMEscan competition binding; conditions: compound 10.0 µM
TGFBR2 (human) = TGFBR2 (human) (UniProt P37173); assay: KINOMEscan competition binding; conditions: compound 10.0 µM
DAPK2 (human) = DAPK2 (human) (UniProt Q9UIK4); assay: KINOMEscan competition binding; conditions: compound 10.0 µM
STK17B (human) = STK17B (human) (UniProt O94768); assay: KINOMEscan competition binding; conditions: compound 10.0 µM
PIM1 (human) [4] = target: PIM1 (human) (UniProt P11309); assay: SelectScreen, TR FRET
PIM2 (human) [5] = target: PIM2 (human) (UniProt Q9P1W9); assay: SelectScreen, TR FRET
PIK3CG (human) = PIK3CG (human) (UniProt P48736); assay: KINOMEscan competition binding; conditions: compound 10.0 µM
MYLK3 (human) = MYLK3 (human) (UniProt Q32MK0); assay: KINOMEscan competition binding; conditions: compound 10.0 µM
PIK3C2B (human) = PIK3C2B (human) (UniProt O00750); assay: KINOMEscan competition binding; conditions: compound 10.0 µM
RIPK2 (human) = RIPK2 (human) (UniProt O43353); assay: KINOMEscan competition binding; conditions: compound 10.0 µM
CIT (human) = CIT (human) (UniProt O14578); assay: KINOMEscan competition binding; conditions: compound 10.0 µM
RPS6KA6 KD2 (human) = RPS6KA6 KD2 (human) (UniProt Q9UK32); assay: KINOMEscan competition binding; conditions: compound 10.0 µM
CLK2 (human) = CLK2 (human) (UniProt P49760); assay: KINOMEscan competition binding; conditions: compound 10.0 µM
BMPR2 (human) = BMPR2 (human) (UniProt Q13873); assay: KINOMEscan competition binding; conditions: compound 10.0 µM
[6] = system: EGFR (human), P00533 [752-759 del]; assay: KINOMEscan competition binding; conditions: compound 10.0 µM
GAK (human) = GAK (human) (UniProt O14976); assay: KINOMEscan competition binding; conditions: compound 10.0 µM
CSNK2A2 (human) = CSNK2A2 (human) (UniProt P19784); assay: KINOMEscan competition binding; conditions: compound 10.0 µM
[7] = system: EGFR (human), P00533 [L858R]; assay: KINOMEscan competition binding; conditions: compound 10.0 µM
PIK3CD (human) = PIK3CD (human) (UniProt O00329); assay: KINOMEscan competition binding; conditions: compound 10.0 µM
[8] = system: EGFR (human), P00533 [P753S; 747-752 del]; assay: KINOMEscan competition binding; conditions: compound 10.0 µM
[9] = system: EGFR (human), P00533 [G719C; 746-750 del]; assay: KINOMEscan competition binding; conditions: compound 10.0 µM
[10] = system: EGFR (human), P00533 [L861Q]; assay: KINOMEscan competition binding; conditions: compound 10.0 µM
[11] = system: EGFR (human), P00533 [A750P; 747-749 del]; assay: KINOMEscan competition binding; conditions: compound 10.0 µM
[12] = system: EGFR (human), P00533 [747-751 del / S ins]; assay: KINOMEscan competition binding; conditions: compound 10.0 µM
TIE1 (human) = TIE1 (human) (UniProt P35590); assay: KINOMEscan competition binding; conditions: compound 10.0 µM
[13] = target: TYK2 JH2 pseudokinase (human) (UniProt P29597); assay: KINOMEscan competition binding; conditions: compound 10.0 µM
EGFR (human) = EGFR (human) (UniProt P00533); assay: KINOMEscan competition binding; conditions: compound 10.0 µM
AAK1 (human) = AAK1 (human) (UniProt Q2M2I8); assay: KINOMEscan competition binding; conditions: compound 10.0 µM
CSNK2A1 (human) = CSNK2A1 (human) (UniProt P68400); assay: KINOMEscan competition binding; conditions: compound 10.0 µM
TEK (human) = TEK (human) (UniProt Q02763); assay: KINOMEscan competition binding; conditions: compound 10.0 µM
RPS6KA4 KD2 (human) = RPS6KA4 KD2 (human) (UniProt O75676); assay: KINOMEscan competition binding; conditions: compound 10.0 µM
[14] = system: EGFR (human), P00533 [G719S]; assay: KINOMEscan competition binding; conditions: compound 10.0 µM
PLK1 (human) = PLK1 (human) (UniProt P53350); assay: KINOMEscan competition binding; conditions: compound 10.0 µM
TNK1 (human) = TNK1 (human) (UniProt Q13470); assay: KINOMEscan competition binding; conditions: compound 10.0 µM
STK33 (human) = STK33 (human) (UniProt Q9BYT3); assay: KINOMEscan competition binding; conditions: compound 10.0 µM
DCLK1 (human) = DCLK1 (human) (UniProt O15075); assay: KINOMEscan competition binding; conditions: compound 10.0 µM
RPS6KA2 KD2 (human) = RPS6KA2 KD2 (human) (UniProt Q15349); assay: KINOMEscan competition binding; conditions: compound 10.0 µM
CAMK2D (human) = CAMK2D (human) (UniProt Q13557); assay: KINOMEscan competition binding; conditions: compound 10.0 µM
TTK (human) [15] = target: TTK (human) (UniProt P33981); assay: SelectScreen, TR FRET
DCLK2 (human) = DCLK2 (human) (UniProt Q8N568); assay: SelectScreen, TR FRET

Chain of TTK (human) (P33981 whole entry, looked up): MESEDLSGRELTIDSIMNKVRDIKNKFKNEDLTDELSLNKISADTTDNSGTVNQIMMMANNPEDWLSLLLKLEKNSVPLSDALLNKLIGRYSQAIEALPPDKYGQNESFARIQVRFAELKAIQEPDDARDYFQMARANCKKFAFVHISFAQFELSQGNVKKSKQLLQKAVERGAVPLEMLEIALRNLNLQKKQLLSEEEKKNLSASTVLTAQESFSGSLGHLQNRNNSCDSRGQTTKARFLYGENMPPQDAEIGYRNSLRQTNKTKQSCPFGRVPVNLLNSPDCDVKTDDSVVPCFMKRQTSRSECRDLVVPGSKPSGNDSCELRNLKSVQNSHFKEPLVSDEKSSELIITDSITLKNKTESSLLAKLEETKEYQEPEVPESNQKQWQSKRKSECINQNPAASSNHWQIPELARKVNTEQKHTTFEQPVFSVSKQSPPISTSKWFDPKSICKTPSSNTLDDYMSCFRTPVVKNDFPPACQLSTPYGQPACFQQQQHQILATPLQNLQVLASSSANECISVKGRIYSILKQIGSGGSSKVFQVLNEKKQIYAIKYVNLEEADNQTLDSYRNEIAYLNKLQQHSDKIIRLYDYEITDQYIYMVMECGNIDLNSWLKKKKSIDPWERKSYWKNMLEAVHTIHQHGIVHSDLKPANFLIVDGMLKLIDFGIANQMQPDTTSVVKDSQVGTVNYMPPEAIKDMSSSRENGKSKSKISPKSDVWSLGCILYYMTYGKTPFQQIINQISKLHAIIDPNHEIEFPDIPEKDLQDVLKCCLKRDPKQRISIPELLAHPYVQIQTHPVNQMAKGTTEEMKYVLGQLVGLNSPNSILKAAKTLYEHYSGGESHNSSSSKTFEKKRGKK
Chain of PIM2 (human) (Q9P1W9 whole entry, looked up): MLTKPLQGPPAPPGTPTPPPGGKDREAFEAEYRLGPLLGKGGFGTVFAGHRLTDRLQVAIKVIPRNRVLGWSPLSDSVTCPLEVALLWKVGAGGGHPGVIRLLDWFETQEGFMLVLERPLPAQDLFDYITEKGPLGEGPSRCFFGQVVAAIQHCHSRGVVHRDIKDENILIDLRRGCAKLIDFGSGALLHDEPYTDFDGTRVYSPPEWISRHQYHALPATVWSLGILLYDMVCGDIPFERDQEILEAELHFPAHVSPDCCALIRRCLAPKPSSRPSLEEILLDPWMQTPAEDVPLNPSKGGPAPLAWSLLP
Chain of PIM1 (human) (P11309 whole entry, looked up): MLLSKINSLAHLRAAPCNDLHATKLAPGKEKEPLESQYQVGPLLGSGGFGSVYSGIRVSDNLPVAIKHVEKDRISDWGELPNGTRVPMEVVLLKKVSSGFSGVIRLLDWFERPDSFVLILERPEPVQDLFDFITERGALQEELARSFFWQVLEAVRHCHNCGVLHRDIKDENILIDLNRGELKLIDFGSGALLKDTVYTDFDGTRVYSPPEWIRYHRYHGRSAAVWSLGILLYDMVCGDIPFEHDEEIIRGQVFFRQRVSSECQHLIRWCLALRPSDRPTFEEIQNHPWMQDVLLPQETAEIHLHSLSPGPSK
Chain of MAPK15 (human) (Q8TD08 whole entry, looked up): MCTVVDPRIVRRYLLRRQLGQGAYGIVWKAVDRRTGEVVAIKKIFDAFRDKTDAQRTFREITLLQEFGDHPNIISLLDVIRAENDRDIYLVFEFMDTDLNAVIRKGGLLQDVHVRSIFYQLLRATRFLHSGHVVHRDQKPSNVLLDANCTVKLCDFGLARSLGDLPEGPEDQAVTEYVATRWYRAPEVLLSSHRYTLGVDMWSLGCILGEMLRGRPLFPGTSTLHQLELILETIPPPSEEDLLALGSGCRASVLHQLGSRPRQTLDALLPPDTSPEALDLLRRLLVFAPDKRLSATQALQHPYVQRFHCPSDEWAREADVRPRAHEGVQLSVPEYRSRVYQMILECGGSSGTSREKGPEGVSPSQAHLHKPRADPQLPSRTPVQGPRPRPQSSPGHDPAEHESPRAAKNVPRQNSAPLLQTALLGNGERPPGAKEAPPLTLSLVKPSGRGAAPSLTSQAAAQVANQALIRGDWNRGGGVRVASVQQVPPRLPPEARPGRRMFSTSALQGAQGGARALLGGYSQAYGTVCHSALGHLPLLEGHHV
Chain of DAPK3 (human) (O43293 whole entry, looked up): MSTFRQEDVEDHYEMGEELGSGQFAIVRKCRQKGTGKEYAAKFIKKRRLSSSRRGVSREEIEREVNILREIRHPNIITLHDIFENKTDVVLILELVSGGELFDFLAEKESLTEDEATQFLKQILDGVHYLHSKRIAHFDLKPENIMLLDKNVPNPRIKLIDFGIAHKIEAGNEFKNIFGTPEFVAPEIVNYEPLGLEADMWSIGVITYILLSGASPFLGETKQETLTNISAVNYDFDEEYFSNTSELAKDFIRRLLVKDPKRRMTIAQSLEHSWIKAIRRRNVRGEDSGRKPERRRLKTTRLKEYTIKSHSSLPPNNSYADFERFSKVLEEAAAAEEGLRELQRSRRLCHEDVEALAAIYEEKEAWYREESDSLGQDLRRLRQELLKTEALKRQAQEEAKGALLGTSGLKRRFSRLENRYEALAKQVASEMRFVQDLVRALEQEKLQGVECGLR
Chain of DAPK2 (human) (Q9UIK4 whole entry, looked up): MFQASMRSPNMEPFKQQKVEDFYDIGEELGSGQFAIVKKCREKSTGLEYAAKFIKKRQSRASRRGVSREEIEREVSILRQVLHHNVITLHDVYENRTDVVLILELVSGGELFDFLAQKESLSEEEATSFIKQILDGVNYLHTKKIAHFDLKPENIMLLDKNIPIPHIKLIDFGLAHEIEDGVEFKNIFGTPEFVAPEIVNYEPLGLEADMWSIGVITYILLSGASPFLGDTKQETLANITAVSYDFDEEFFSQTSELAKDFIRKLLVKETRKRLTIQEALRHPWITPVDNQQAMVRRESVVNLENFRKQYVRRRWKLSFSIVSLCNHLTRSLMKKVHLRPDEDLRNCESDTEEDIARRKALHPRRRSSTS
Chain of HIPK1 (human) (Q86Z02 whole entry, looked up): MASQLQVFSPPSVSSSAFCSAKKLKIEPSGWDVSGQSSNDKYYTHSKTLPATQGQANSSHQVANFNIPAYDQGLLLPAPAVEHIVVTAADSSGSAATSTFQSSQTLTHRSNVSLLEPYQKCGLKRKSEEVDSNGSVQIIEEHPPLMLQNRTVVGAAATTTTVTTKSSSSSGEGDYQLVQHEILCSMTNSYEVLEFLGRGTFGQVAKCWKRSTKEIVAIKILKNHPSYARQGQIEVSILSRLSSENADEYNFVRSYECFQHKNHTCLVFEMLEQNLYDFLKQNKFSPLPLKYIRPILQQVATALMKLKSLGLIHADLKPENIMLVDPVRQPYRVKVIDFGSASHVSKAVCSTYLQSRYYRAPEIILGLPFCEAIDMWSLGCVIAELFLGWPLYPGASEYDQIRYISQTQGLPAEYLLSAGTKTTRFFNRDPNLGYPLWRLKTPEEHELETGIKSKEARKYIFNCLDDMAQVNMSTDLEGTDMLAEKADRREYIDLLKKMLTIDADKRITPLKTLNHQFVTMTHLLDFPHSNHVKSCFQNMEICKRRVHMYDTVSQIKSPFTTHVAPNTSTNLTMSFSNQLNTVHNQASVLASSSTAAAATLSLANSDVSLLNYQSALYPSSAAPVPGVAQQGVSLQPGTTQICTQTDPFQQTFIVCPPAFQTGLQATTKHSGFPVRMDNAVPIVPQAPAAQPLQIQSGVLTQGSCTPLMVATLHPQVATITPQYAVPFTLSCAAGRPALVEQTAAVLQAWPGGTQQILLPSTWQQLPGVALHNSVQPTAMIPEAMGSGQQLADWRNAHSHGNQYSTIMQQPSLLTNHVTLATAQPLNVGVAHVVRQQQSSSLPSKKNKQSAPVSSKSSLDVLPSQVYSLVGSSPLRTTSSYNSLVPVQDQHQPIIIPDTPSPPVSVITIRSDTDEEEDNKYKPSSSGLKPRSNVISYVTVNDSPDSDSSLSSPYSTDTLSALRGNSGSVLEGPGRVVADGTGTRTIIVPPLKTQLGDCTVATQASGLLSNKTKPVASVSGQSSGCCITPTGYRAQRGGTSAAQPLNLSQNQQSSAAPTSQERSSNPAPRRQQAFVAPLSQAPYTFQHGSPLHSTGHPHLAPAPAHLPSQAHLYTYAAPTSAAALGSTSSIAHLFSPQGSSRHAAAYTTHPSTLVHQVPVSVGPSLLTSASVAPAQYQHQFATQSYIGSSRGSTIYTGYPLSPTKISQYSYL
Chain of STK17B (human) (O94768 whole entry, looked up): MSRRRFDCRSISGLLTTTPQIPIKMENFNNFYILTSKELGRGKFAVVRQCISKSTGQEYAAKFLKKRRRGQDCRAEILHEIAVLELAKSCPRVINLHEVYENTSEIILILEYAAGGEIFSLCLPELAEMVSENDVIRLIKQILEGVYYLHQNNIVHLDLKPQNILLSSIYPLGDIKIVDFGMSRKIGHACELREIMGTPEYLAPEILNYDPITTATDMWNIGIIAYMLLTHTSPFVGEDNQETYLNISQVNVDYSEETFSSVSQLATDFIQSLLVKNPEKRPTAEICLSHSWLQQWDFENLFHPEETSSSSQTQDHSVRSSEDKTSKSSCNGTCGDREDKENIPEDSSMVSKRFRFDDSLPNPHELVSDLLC

kinase still bound, per cent of control (STK17A (human)): 1.1% | kinase still bound, per cent of control (HIPK1 (human)): 0.65% | kinase still bound, per cent of control (CDK5 (human)): 9.6% | kinase still bound, per cent of control (TAOK3 (human)): 29% | kinase still bound, per cent of control (TTK (human) [1]): 24% | kinase still bound, per cent of control (PIM1 (human) [2]): 3% | kinase still bound, per cent of control (GSK3A (human)): 9.9% | kinase still bound, per cent of control (NLK (human)): 18% | kinase still bound, per cent of control (CDK7 (human)): 23% | kinase still bound, per cent of control (DAPK1 (human)): 3.5% | kinase still bound, per cent of control (BRAF (human)): 24% | kinase still bound, per cent of control (CDK16 (human)): 1.2% | kinase still bound, per cent of control (ACVR2B (human)): 30% | kinase still bound, per cent of control (DAPK3 (human)): 24% | kinase still bound, per cent of control (PLK4 (human)): 15% | kinase still bound, per cent of control (PIM2 (human) [3]): 1.8% | kinase still bound, per cent of control (CDK3 (human)): 17% | kinase still bound, per cent of control (MYLK4 (human)): 6.7% | kinase still bound, per cent of control (MAPK12 (human)): 12% | kinase still bound, per cent of control (TAOK1 (human)): 2.4% | kinase still bound, per cent of control (PIM3 (human)): 4.8% | kinase still bound, per cent of control (TGFBR2 (human)): 22% | kinase still bound, per cent of control (DAPK2 (human)): 16% | kinase still bound, per cent of control (STK17B (human)): 6% | IC50 (PIM1 (human) [4]): 573 nM | IC50 (PIM2 (human) [5]): 501 nM
SMILES: N=C1NC(=O)/C(=C/c2ccc(-c3ccc(S(N)(=O)=O)cc3)o2)S1
kinase still bound, per cent of control (MAPK15 (human)): 5.4%

kinase still bound, per cent of control (STK17A (human)): 1.5% | kinase still bound, per cent of control (HIPK1 (human)): 5% | kinase still bound, per cent of control (PIK3CG (human)): 4% | kinase still bound, per cent of control (MYLK3 (human)): 29% | kinase still bound, per cent of control (PIK3C2B (human)): 19% | kinase still bound, per cent of control (RIPK2 (human)): 32% | kinase still bound, per cent of control (CIT (human)): 0.2% | kinase still bound, per cent of control (RPS6KA6 KD2 (human)): 18% | kinase still bound, per cent of control (CLK2 (human)): 27% | kinase still bound, per cent of control (PIM1 (human) [2]): 2.7% | kinase still bound, per cent of control (BMPR2 (human)): 12% | kinase still bound, per cent of control [6]: 9.8% | kinase still bound, per cent of control (DAPK1 (human)): 10% | kinase still bound, per cent of control (GAK (human)): 9.3% | kinase still bound, per cent of control (CSNK2A2 (human)): 4.2% | kinase still bound, per cent of control [7]: 20% | kinase still bound, per cent of control (PIK3CD (human)): 27% | kinase still bound, per cent of control (ACVR2B (human)): 9.9% | kinase still bound, per cent of control [8]: 14% | kinase still bound, per cent of control [9]: 15% | kinase still bound, per cent of control (DAPK3 (human)): 25% | kinase still bound, per cent of control (PIM2 (human) [3]): 2% | kinase still bound, per cent of control [10]: 28% | kinase still bound, per cent of control [11]: 5.8% | kinase still bound, per cent of control [12]: 1.9% | kinase still bound, per cent of control (TIE1 (human)): 25% | kinase still bound, per cent of control (MYLK4 (human)): 17% | kinase still bound, per cent of control [13]: 33% | kinase still bound, per cent of control (EGFR (human)): 29% | kinase still bound, per cent of control (AAK1 (human)): 35% | kinase still bound, per cent of control (TAOK1 (human)): 8.4% | kinase still bound, per cent of control (PIM3 (human)): 4.8% | kinase still bound, per cent of control (CSNK2A1 (human)): 4.4% | kinase still bound, per cent of control (TEK (human)): 2.1% | kinase still bound, per cent of control (RPS6KA4 KD2 (human)): 22% | kinase still bound, per cent of control (DAPK2 (human)): 12% | kinase still bound, per cent of control [14]: 19% | kinase still bound, per cent of control (STK17B (human)): 3.3% | IC50 (PIM1 (human) [4]): 94 nM | IC50 (PIM2 (human) [5]): 158 nM
SMILES: O=C1NC(=O)/C(=C/c2ccc(-c3ccc(F)cc3O)o2)S1
kinase still bound, per cent of control (MAPK15 (human)): 3.6%

kinase still bound, per cent of control (PLK1 (human)): 1.2% | kinase still bound, per cent of control (TNK1 (human)): 33% | kinase still bound, per cent of control (STK33 (human)): 22% | kinase still bound, per cent of control (DCLK1 (human)): 27% | Kd (TTK (human) [1]): 106 nM | kinase still bound, per cent of control (TTK (human) [1]): 3.9% | kinase still bound, per cent of control (RPS6KA2 KD2 (human)): 13% | kinase still bound, per cent of control (CAMK2D (human)): 27% | kinase still bound, per cent of control (GAK (human)): 8.2% | IC50 (TTK (human) [15]): 1010 nM | IC50 (DCLK2 (human)): 556 nM
SMILES: CCOc1cc(N2CCC(O)CC2)ccc1Nc1ncc2c(n1)N(C1CCCC1)CCC(=O)N2CC
